For orientation: pIC50 means the negative decadic logarithm of the IC50, by convention in mol/L.

pIC50: −log10 of the molar value. Structures can show the parent of a compound that is named as a salt.

One test relates to leukotriene pathway in human whole blood (LTB4 levels). The test is described as follows: Human whole blood assay (A23187-stimulated LTB4). The conditions noted are these: Homo sapiens, human whole blood diluted 1:1, A23187-stimulated; read-out: LTB4 IC50 1:1. It counts as cell-based. The procedure: The ability of the compounds of the present invention to treat a FLAP-mediated disease and/or disorder, or associated symptoms or complications thereof, was determined using the following procedures. Binding assay data represent the average value obtained from two different assay plates, with samples run in duplicate on each plate. Human whole blood assay data represent a single replicate on an assay plate using whole blood from at least one healthy donor.
An in vitro cellular assay was performed using human whole blood collected in heparin-containing tubes, which was used to test the ability of compounds to modulate the leukotriene pathway in human whole blood. The blood was diluted 1:1 in RPMI medium, pre-incubated for 15 min at 37° Celsius with test compounds at various concentrations, and then stimulated with calcium ionophore, A23187 (7 μg/mL), for 30 min at 37° Celsius. The samples were then centrifuged and plasma was removed. The plasma was diluted in assay buffer and LTB4 levels were measured using a commercial kit (Enzo Life Sciences). The concentration of each compound that was required for half-maximal inhibition (modulation) of recombinant enzyme activity (IC50) was calculated by a 4-parameter equation using the program GraphPad Prism (GraphPad software).
With `CC(C)(C)NS(=O)(=O)c1ccccc1-c1ccc(-c2ccc3[nH]ccc3c2)c(F)c1` [Example 421, N-tert-Butyl-3′-fluoro-4′-(1H-indol-5-yl)biphenyl-2-sulfonamide], the pIC50 is under 5.00.
As to `CC(C)(C)NS(=O)(=O)c1ccccc1-c1ccc(-c2cc(N)c3[nH]ccc3c2)c(F)c1` [Example 458, 4′-(7-Amino-1H-indol-5-yl)-N-tert-butyl-3′-fluorobiphenyl-2-sulfonamide], the pIC50 is 7.28.
In the case of `Cc1nc(-c2ccc(-c3ccccc3S(N)(=O)=O)cc2F)cnc1N` [Example 446, 4′-(5-Amino-6-methylpyrazin-2-yl)-3′-fluorobiphenyl-2-sulfonamide], the negative logarithm of the IC50 (pIC50) was 5.86.
In the case of `N#Cc1nc(N)cnc1-c1ccc(-c2ccc(C(F)(F)F)cc2S(=O)(=O)N2CCNC(=O)C2)cc1F` [Example 715, 6-Amino-3-{3-fluoro-2′-[(3-oxopiperazin-1-yl)sulfonyl]-4′-(trifluoromethyl)biphenyl-4-yl}pyrazine-2-carbonitrile], the pIC50 was 6.73.
In the case of `Nc1ncc(-c2ccc(-c3ccccc3S(=O)(=O)N3CCCC(O)C3)cc2F)cc1F` (racemic) [Example 668, (racemic)-1-((4′-(6-Amino-5-fluoropyridin-3-yl)-3′-fluoro-[1,1′-biphenyl]-2-yl)sulfonyl)piperidin-3-ol], the negative-log IC50 (pIC50) is 6.72.
For the compound `CCC(C)S(=O)(=O)c1ncccc1-c1ccc(-c2cnc(N)nc2)c(F)c1` (racemic) [Example 813, racemic 5-(4-(2-(sec-Butylsulfonyl)pyridin-3-yl)-2-fluorophenyl)pyrimidin-2-amine formate], the negative-log IC50 (pIC50) was 7.12.
On to `CC(C)(C)NS(=O)(=O)c1ccccc1-c1ccc(-c2cnc(N)c(F)c2)c(F)c1` [Example 430, 4′-(6-Amino-5-fluoropyridin-3-yl)-N-tert-butyl-3′-fluorobiphenyl-2-sulfonamide], for which the negative logarithm of the IC50 (pIC50) is 7.23.
For `CC(O)CNS(=O)(=O)c1ccccc1-c1ccc(-c2cnc(N)c(C#N)n2)c(F)c1` (stereo in doubt) [Example 415, 4′-(5-Amino-6-cyanopyrazin-2-yl)-3′-fluoro-N-[(2R)-2-hydroxypropyl]biphenyl-2-sulfonamide], the pIC50 was 7.43.
As to `CC(=O)NC1CCN(S(=O)(=O)c2ccccc2-c2ccc(-c3cnc(N)c(F)c3)c(F)c2)CC1` [Example 670, N-(1-((4′-(6-Amino-5-fluoropyridin-3-yl)-3′-fluoro-[1,1′-biphenyl]-2-yl)sulfonyl)piperidin-4-yl)acetamide], the pIC50 was 6.28.
With `CC1CN(C(=O)c2ccccc2-c2ccc(-c3cnc(N)cn3)c(F)c2)CC(C)O1` (mixture of isomers) [Example 773, 5-{2′-[(2,6-Dimethylmorpholin-4-yl)carbonyl]-3-fluorobiphenyl-4-yl}pyrazin-2-amine (diastereoisomeric mixture)], the pIC50 is 6.19.
As to `N#Cc1nc(-c2ccc(-c3ccccc3S(=O)(=O)NCCO)cc2F)cnc1N` [Example 413, 4′-(5-Amino-6-cyanopyrazin-2-yl)-3′-fluoro-N-(2-hydroxyethyl)biphenyl-2-sulfonamide], the pIC50 is 6.35.
The same measure, in the same setting: the value for `COc1cc(C(F)(F)F)ccc1-c1ccc(-c2cnc(N)cn2)c(F)c1` [Example 553, 5-[3-Fluoro-2′-methoxy-4′-(trifluoromethyl)biphenyl-4-yl]pyrazin-2-amine] was 6.37.

Still in this test, the particulars now being: Homo sapiens, human whole blood diluted 1:1 in RPMI, A23187-stimulated LTB4; read-out: LTB4 IC50 1:1.
On to `C[C@@H](CO)NS(=O)(=O)c1ccccc1-c1ccc(-c2cnc(N)cn2)c(F)c1` [Example 25, (R)-4′-(5-Aminopyrazin-2-yl)-3′-fluoro-N-[(1R)-2-hydroxy-1-methylethyl]biphenyl-2-sulfonamide], for which the pIC50 was 7.64.
As to `N#CCCNS(=O)(=O)c1ccccc1-c1ccc(-c2cnc(N)cn2)c(F)c1` [Example 169, 4′-(5-Aminopyrazin-2-yl)-N-(2-cyanoethyl)-3′-fluorobiphenyl-2-sulfonamide], the pIC50 was 7.64.
With `CC(NS(=O)(=O)c1ccccc1-c1ccc(-c2cnc3[nH]ccc3n2)c(F)c1)C(F)(F)F` (racemic) [Example 376, racemic 3′-Fluoro-4′-(5H-pyrrolo[2,3-b]pyrazin-2-yl)-N-(2,2,2-trifluoro-1-methylethyl)biphenyl-2-sulfonamide], the pIC50 is 8.00.
`CC(C)(CO)CNS(=O)(=O)c1ccccc1-c1ccc(-c2cnc(N)cn2)c(F)c1` [Example 103, 4′-(5-Aminopyrazin-2-yl)-3′-fluoro-N-(3-hydroxy-2,2-dimethylpropyl)biphenyl-2-sulfonamide]: the pIC50 is 7.77.
`CN1CCN([C@@H]2CN(S(=O)(=O)c3ccccc3-c3ccc(-c4cnc(N)cn4)c(F)c3)C[C@H]2O)CC1` (racemic) [Example 188, Racemic-1-{[4′-(5-Aminopyrazin-2-yl)-3′-fluorobiphenyl-2-yl]sulfonyl}-4-(4-methylpiperazin-1-yl)-pyrrolidin-3-ol trifluoroacetic acid salt]: the pIC50 was 5.93.
Consider `Nc1ncc(-c2ccc(-c3ccccc3S(=O)(=O)N3CCCC3)cc2F)cn1` [Example 298, 5-[3-Fluoro-2′-(pyrrolidin-1-ylsulfonyl)biphenyl-4-yl]pyrimidin-2-amine trifluoroacetic acid salt], for which the pIC50 is 5.93.
With `N#CC1CN(S(=O)(=O)c2ccccc2-c2ccc(-c3cnc(N)nc3)c(F)c2)C1` [Example 314, 1-((4′-(2-Aminopyrimidin-5-yl)-3′-fluoro-[1,1′-biphenyl]-2-yl)sulfonyl)azetidine-3-carbonitrile], the pIC50 was 6.75.
Regarding `Nc1ncc(-c2ccc(-c3ccccc3S(=O)(=O)Cc3nc(C4CC4)no3)cc2F)cn1` [Example 321, 5-(2′-{[(3-Cyclopropyl-1,2,4-oxadiazol-5-yl)methyl]sulfonyl}-3-fluorobiphenyl-4-yl)pyrimidin-2-amine], the pIC50 was 5.07.
As for `Nc1cnc(-c2ccc(-c3ccccc3S(=O)(=O)N3CCCC(O)C3)cc2F)cn1` (racemic) [Example 70, racemic 1-{[4′-(5-Aminopyrazin-2-yl)-3′-fluorobiphenyl-2-yl]sulfonyl}piperidin-3-ol], the pIC50 was 8.00.
In the case of `CSc1ccc(F)cc1-c1ccc(-c2cnc3[nH]ccc3n2)c(F)c1` [Example 383, 2-[3,5′-Difluoro-2′-(methylsulfanyl)biphenyl-4-yl]-5H-pyrrolo[2,3-b]pyrazine], the pIC50 was 5.79.
For `Nc1cnc(-c2ccc(-c3ccccc3S(=O)(=O)N[C@H]3c4ccccc4C[C@H]3O)cc2F)cn1` [Example 160, 4′-(5-Aminopyrazin-2-yl)-3′-fluoro-N-((1S,2R)-2-hydroxy-2,3-dihydro-1H-inden-1-yl)-[1,1′-biphenyl]-2-sulfonamide], the pIC50 is 8.30.
For the compound `Nc1ncc(-c2ccc(-c3ccccc3S(=O)(=O)N3CCN(C4CC4)CC3)cc2F)cn1` [Example 281, 5-{2′-[(4-Cyclopropylpiperazin-1-yl)sulfonyl]-3-fluorobiphenyl-4-yl}pyrimidin-2-amine trifluoroacetic acid salt], the pIC50 is 7.36.
On to `Nc1cnc(-c2ccc(-c3ccc(C(F)(F)F)cc3S(=O)(=O)NCCO)cc2F)cn1` [Example 210, 4′-(5-Aminopyrazin-2-yl)-3′-fluoro-N-(2-hydroxyethyl)-4-(trifluoromethyl)biphenyl-2-sulfonamide], for which the pIC50 was 7.70.
`Nc1cnc(-c2ccc(-c3ccccc3S(=O)(=O)N3CCN(c4ncccn4)CC3)cc2F)cn1` [Example 177, 5-{3-Fluoro-2′-[(4-pyrimidin-2-ylpiperazin-1-yl)sulfonyl]biphenyl-4-yl}pyrazin-2-amine]: the pIC50 is 6.52.
`CC(C)(CCO)NS(=O)(=O)c1ccccc1-c1ccc(-c2cnc(N)cn2)c(F)c1` [Example 102, 4′-(5-Aminopyrazin-2-yl)-3′-fluoro-N-(3-hydroxy-1,1-dimethylpropyl)biphenyl-2-sulfonamide]: the pIC50 is 7.46.
Consider `CC(CO)NS(=O)(=O)c1ccccc1-c1ccc(-c2cnc(N)cn2)c(F)c1` (stereo in doubt) [Example 32, 4′-(5-Aminopyrazin-2-yl)-3′-fluoro-N-[(1S)-2-hydroxy-1-methylethyl]biphenyl-2-sulfonamide], for which the pIC50 was 7.52.
Turning to `Nc1cnc(-c2ccc(-c3ccccc3S(=O)(=O)N3CC[C@H](N)C3)cc2F)cn1` [Example 93, (S)-5-(2′-((3-Aminopyrrolidin-1-yl)sulfonyl)-3-fluoro-[1,1′-biphenyl]-4-yl)pyrazin-2-amine], the negative-log IC50 (pIC50) is 6.89.
The same measure, in the same setting: in the case of `CC(CO)(CO)NS(=O)(=O)c1ccccc1-c1ccc(-c2cnc(N)nc2)c(F)c1` [Example 255, 4′-(2-Aminopyrimidin-5-yl)-3′-fluoro-N-[2-hydroxy-1-(hydroxymethyl)-1-methylethyl]biphenyl-2-sulfonamide] it was 7.12; in that of `Nc1cnc(-c2ccc(-c3ccccc3S(=O)(=O)N3CC[C@H](O)C3)cc2F)cn1` [Example 184, (3S)-1-{[4′-(5-Aminopyrazin-2-yl)-3′-fluorobiphenyl-2-yl]sulfonyl}pyrrolidin-3-ol trifluoroacetic acid salt], 7.68.

Still in this test, the particulars now being: Homo sapiens, read-out: LTB4 IC50 1:1.
In the case of `C[Si](C)(C)CCOCS(=O)(=O)c1ccccc1-c1ccc(-c2cnc(N)nc2)c(F)c1` [Example 338, 5-[3-Fluoro-2′-({[2-(trimethylsilyl)ethoxy]methyl}sulfonyl)biphenyl-4-yl]pyrimidin-2-amine formate salt], the negative logarithm of the IC50 (pIC50) was 5.96.

Source of the values: US9079866B2, “Flap modulators” (JANSSEN PHARMACEUTICA NV, priority 2013, dated 2015).
